3 molecules from patent US12508280B2, “Formulations for improving gut health” (DSM IP ASSETS B.V., priority 2018, dated 2025) can be followed below.

The test system of experiment [1] is genes involved in Acetyl-CoA fermentation to Butyrate pathway. The experiment in a line: Shotgun sequencing functional analysis: butyrate pathway genes (first set). The experiment is classed as cell-based, human. Particulars: after 24 h fermentation, vs corresponding control. The protocol:
(§1) Since ethanol is known to have antimicrobial effects, two blanks for each type of stock solution were included. As a source of the microbial community, a freshly prepared fecal suspension from the selected donor was added to the reactors. […] All tests, except the blanks, were performed in single repetition, resulting in 40 independent incubations, as specified in Table 1. Incubation conditions of the pre-screening experiment and the final experiment were 48 h at 37° C., under shaking (90 rpm) and anaerobic conditions. DNA were extracted from effluent samples collected from each fermentation flask before (0 h fermentation) and after fermentation (24 h fermentation) and use for microbiome composition analysis by Shotgun sequencing. Effluent samples were collected from each fermentation flask before (0 h fermentation) and after fermentation (48 h fermentation), sterilized by filtering through 0.22 μm filters and used for short chain fatty acids (SCFA), quantification of immunological biomarkers and in vitro analysis in cell culture systems.
(§2) For the first set of in vitro experiments, total DNA was extracted from all samples collected throughout the study using the QIAamp DNA stool minikit (Qiagen, Crawley, United Kingdom) according to the manufacturer's instructions, apart from addition of a bead-beating step and increasing the lysis temperature to 95° C. as described previously (McCormack et al., 2018).
(§3) After DNA isolation, DNA was quantified using the Qubit High Sensitivity DNA assay (Thermo Fisher). Whole metagenome libraries were then prepared using the Illumina Nextera XT kit (Illumina) in accordance with the manufacturer's instructions, with the following modifications: Firstly, tagmentation time was increased to 7 min and secondly, following incorporation of indices and Ampure purification of the products, the samples were each individually sized by running on an Agilent High Sensitivity Chip (Agilent) and quantified using the Qubit High Sensitivity DNA assay (Thermo Fisher) in accordance with Teagasc Sequencing Platform SOPs. The samples were then pooled equimolarly and sequenced on the Illumina NextSeq 500 with a NextSeq 500/550 v2 high-output reagent kit (300 cycles). All sequencing was done in the Teagasc sequencing facility in accordance with standard Illumina sequencing protocols.
(§4) Delivered raw FASTQ sequence files were quality checked as follows: poor quality and duplicate read removal, as well as trimming was implemented using a combination of SAM and Picard tools. Taxonomy was assigned to the reads using the Kraken software and functional analysis was performed with Super focus.

In experiment [2] the test system is fecal suspension from the selected donor. Briefly: Intestinal batch fermentation, SCFA production (first set). The note with it: after 48 h fermentation, vs corresponding control. It counts as cell-based, human. The procedure:
In a first set of in vitro experiments at the start of intestinal batch fermentation incubation, all test ingredients were added from stock solutions to the modified nutritional medium, containing (g/l): 2.5 K2HPO4, 10.9 KH2PO4, 2 NaHCO3, 2 yeast extract, 2 peptone, 1 mucin, 0.5 cysteine, 2 Tween 80, 2 glucose, 2 starch, 2 cellobiose, 0.1 NaCl, 0.01 MgSO4·7H2O, 0.01 CaCl2·6H2O, 0.05 hemin, 0.5 bile salts.
The other compounds were prepared in ethanol: • Vitamin K1 (VK1), • MEG-3 0080 EE Oil (MEG-3 0080 EE), • MEG-3 4535 EE Oil (MEG-3 4535 EE), • MEG-3 8000 EE Oil (MEG-3 8000 EE).
as §1
Short chain fatty acids (SCFA) are an assessment of the microbial carbohydrate metabolism (acetate, propionate and butyrate) or protein metabolism (branched SCFA) and can be compared to typical fermentation patterns for normal GI microbiota. Samples for SCFA analysis were analyzed after 0, 6, 24 and 48 h of incubation for both set of in vitro experiments, above.
SCFA were extracted from the samples with diethyl ether, after the addition of 2-methyl hexanoic acid as an internal standard. Extracts were analysed using a GC-2014 gas chromatograph (Shimadzu's-Hertogenbosch, the Nether-lands), equipped with a capillary fatty acid-free EC-1000Econo-Cap column (dimensions: […]×0.53 mm, film thickness […]; Alltech, Laarne, Belgium), a flame ionization detector and a split injector. The injection volume was […] and the temperature profile was set from 110 to 160° C., with a temperature increase of 6° C. min-1. The carrier gas was nitrogen and the temperature of the injector and detector were […] and 220° C., respectively. The production of unbranched and branched SCFA was calculated by summing the molar concentrations of acetate, propionate, butyrate, valerate and caproate, and summing isobutyrate, isovalerate and isocaproate molar concentrations, respectively. The total SCFA production was defined as the sum of unbranched and branched SCFA.

In experiment [3] the test system is Co-cultures of Caco-2 and HT29-MTX-E12 cells. Briefly: Barrier integrity, leaky gut model, apical stressor Rhamnolipids. It counts as cell-based. The note with it: vs corresponding control; for TEER, apical induction of leaky gut cellular model: 48 h minus 0 h fermentation samples; for Lucifer yellow, apical induction of leaky gut cellular model: 48 h fermentation samples.
Experimental: Since ethanol is known to have antimicrobial effects, two blanks for each type of stock solution were included. As a source of the microbial community, a freshly prepared fecal suspension from the selected donor was added to the reactors. […] All tests, except the blanks, were performed in single repetition, resulting in 40 independent incubations, as specified in Table 1. Incubation conditions of the pre-screening experiment and the final experiment were 48 h at 37° C., under shaking (90 rpm) and anaerobic conditions. […] Effluent samples were collected from each fermentation flask before (0 h fermentation) and after fermentation (48 h fermentation), sterilized by filtering through 0.22 μm filters and used for short chain fatty acids (SCFA), quantification of immunological biomarkers and in vitro analysis in cell culture systems.
Co-cultures of Caco-2 and HT29-MTX-E12 cells were used to assess the protective effect of the supernatants before (0 h) and after fermentation (48 h) for both sets of in vitro experiments above.
CaCo-2 ECACC 86010202 and HT29-MTX-E12 ECACC 12040401 cells (both from European Collection of Cell Cultures, Salisbury, UK) were both cultured at 37° C., in atmosphere of 5% CO2 in DMEM medium supplemented with 4.5 g/L D-Glucose, 4 mM L-Glutamine, 1 mM Sodium Pyruvate, 1% MEM Non-Essential Amino Acids, 50 μg/mL Gentamicin (Life Technologies Europe B.V., Zug, Switzerland) and 10% heat-inactivated FBS (Sigma-Aldrich, Buchs, Switzerland). Sub-confluent cells were trypsinized using 0.25% Trypsin/EDTA (Life Technologies Europe B.V., Zug, Switzerland) and passaged at a ratio of 1:5-1:10 twice a week. Cells between passages 55 and 85 were used for this study.
Cells were seeded at a density of 20000 cells/well in a 7:3 ratio (Caco-2:HT29-MTX-E12) in Corning HTS Transwell-24 system PET membranes, 0.4 μM pore size, cell growth area 0.33 cm2/well (Corning BV, Amsterdam, Netherlands) and cultured as described above. Media was changed every second to third day.
For both sets of in vitro experiments, the integrity of cell monolayers after the stressor test was evaluated by both TEER values and by measuring the transport of Lucifer yellow from apical to basolateral compartments (Leaky gut model). A prewarmed HBSS transport buffer composed of Hank's Balanced Salt Solution pH 7.4 with Ca2+ and Mg2+, containing 5.5 mM D-(+)-glucose, Sodium Bicarbonate, and supplemented with 4 mM L-glutamine, 20 mM HEPES (Life Technologies Europe B.V., Zug, Switzerland) was used for all permeability experiments. The inserts were rinsed twice with HBSS using a reservoir tray, 100 μl HBSS were then added to the apical site of the inserts and subsequently moved to new wells with fresh HBSS and allowed to equilibrate at 37° C. for 60 min in the incubator followed by TEER measurement to obtain baseline resistance readings.
Lucifer Yellow CH dilithium salt (Sigma-Aldrich, Buchs, Switzerland) was dissolved in HBSS at a final concentration of 100 μg/ml. Basolateral stressor EtOH (Merck, KgaA, Darmstadt, Germany) was diluted to 5% in HBSS. Apical Stressor Rhamnolipids R90 (AGAE Technologies, Corvallis, USA) was dissolved in HBSS containing Lucifer Yellow at a final concentration of 350 μg/ml. All solutions were prepared freshly each time.
The HBSS transport buffer from the basolateral chamber was aspirated first, then the HBSS from the apical chamber and replaced with Lucifer yellow solution. For the apical stressor test, Lucifer yellow solution containing 350 μg/ml Rhamnolipids or Lucifer yellow solution without stressor for the control wells was loaded into the apical compartment, blank HBSS was subsequently added to the basolateral chamber.

For another experiment, the system named is Bifidobacterium. Briefly: Microbiome composition by shotgun sequencing: Bifidobacterium (first set). The note with it: after 24 h fermentation, vs corresponding control. The experiment is classed as cell-based, human. The protocol:
as §1, §2, §3, §4

Experiment [4] relates to fecal microbial community. The experiment in a line: Microbiome composition by shotgun sequencing: alpha diversity (first set). It counts as cell-based, human. The note with it: after 24 h fermentation, vs corresponding control. The procedure: as §1, §2, §3, §4
Another experiment concerns HT29 cells. The experiment in a line: HT29 cell culture, quantification of immunological biomarkers. The experiment is classed as cell-based. The note with it: effluent from 24 h fermentation, vs corresponding control. The procedure: as §1, with “([…]), […]” for “(0 h fermentation) and after fermentation (48 h fermentation), sterilized by filtering through 0.22 μm filters and used for short chain fatty acids (SCFA), quantification of immunological biomarkers and in vitro analysis in”
For both sets of in vitro experiments, HT29 cells were obtained from American Type Culture Collection (Manassas, VA). Cells were cultured in DMEM supplemented with 10% fetal bovine serum (FBS), 50 units/ml penicillin, 50 μg/ml streptomycin, L-glutamine, and nonessential amino acids (Life Technologies Europe B.V., Zug, Switzerland). Cells were seeded into 12-well plates at 8×10^5 cells per well and used after 2 days of preculture. They were starved in DMEM containing 0.25% FBS for 18 h before treatment. Cells were treated for 24 hours with TNF-α at 100 ng/mL or fermentation supernatants which were sterile filtered and diluted 1:20 in DMEM containing 0.25% FBS. All treatments were done in triplicate. Consequently, cytokines, chemokines and interleukins were quantified in HT29 supernatants using the Luminex Technology (LiquiChip Workstation IS 200, Qiagen, Hilden, Germany) with Bio-Plex Pro Human Cytokine Panel kits (Bio-Rad, Hercules, CA) or with Luminex Screening Assay kits (R&D Systems, Inc., Minneapolis, MN), following the manufacturer's instructions. The data were acquired with the Luminex IS 2.3 software and evaluated with the LiquiChip Analyser software (Qiagen, Hilden, Germany).

On to `CC(=O)OC/C=C(C)/C=C/C=C(C)/C=C/C1=C(C)CCCC1(C)C` [Vitamin A], for which the “relative abundance of genes involved in Acetyl-CoA fermentation to Butyrate pathway” value (“relative abundance of genes involved” for short) in experiment [1] (1× dose) and in experiment [1] (5× dose) was “increase relative abundance” throughout. Further, the butyrate production entry in experiment [2] (0.2× dose), in experiment [2] (1× dose) and in experiment [2] (5× dose) was “increase butyrate production” each time. In addition, the propionate production result in experiment [2] (0.2× dose), in experiment [2] (1× dose) and in experiment [2] (5× dose) was “increase propionate production” in each case. For the same molecule, the “total SCFAs production” value in experiment [2] (0.2× dose) and in experiment [2] (5× dose) was “increase total SCFAs production” throughout. In addition, the acetate production result in experiment [2] (1× dose) is “increase acetate production”. In addition, the “TEER, apical induction of leaky gut cellular model” value in experiment [3] (0.2× dose), in experiment [3] (1× dose) and in experiment [3] (5× dose) was “increase TEER” in each case. For the same molecule, the “Lucifer yellow, apical induction of leaky gut cellular model” value in experiment [3] (1× dose) and in experiment [3] (5× dose) was “decrease Lucifer yellow” in each case. The Bifidobacterium relative abundance result with Bifidobacterium (1× dose) is given as “increase Bifidobacterium relative abundance”. The “microbiome alpha diversity (Shannon diversity index)” value in experiment [4] (1× dose) and in experiment [4] (5× dose) was “increase microbiome diversity” each time. Further, the “IL-8 production by HT29 cells” value with HT29 cells (0.2× dose) and in the experiment on HT29 cells (5× dose) was “increase IL-8 production” each time. Also, the “MIP3A-CCL20 production by HT29 cells” value in the experiment on HT29 cells (0.2× dose), in the experiment on HT29 cells (1× dose) and with HT29 cells (5× dose) was “increase MIP3A-CCL20 production” each time.

Turning to `C=C1CC[C@H](O)C/C1=C/C=C1\CCC[C@]2(C)[C@@H]([C@H](C)CCCC(C)C)CC[C@@H]12` [Vitamin D, Vitamin D3], in experiment [1] (0.2× dose), the “relative abundance of genes involved” value is “increase relative abundance”. The butyrate production entry in experiment [2] (0.2× dose) and in experiment [2] (1× dose) was “increase butyrate production” each time. Besides, the propionate production result in experiment [2] (1× dose) and in experiment [2] (5× dose) was “increase propionate production” each time. Besides, the “total SCFAs production” value in experiment [2] (1× dose) and in experiment [2] (5× dose) was “increase total SCFAs production” each time. Also, the “TEER, apical induction of leaky gut cellular model” value in experiment [3] (5× dose) is “increase TEER”. The Bifidobacterium relative abundance entry in the experiment with Bifidobacterium (0.2× dose) and in the experiment on Bifidobacterium (5× dose) was “increase Bifidobacterium relative abundance” throughout. For the same molecule, the “microbiome alpha diversity (Shannon diversity index)” value in experiment [4] (0.2× dose) and in experiment [4] (5× dose) was “increase microbiome diversity” throughout. Moreover, the “MIP3A-CCL20 production by HT29 cells” value with HT29 cells (0.2× dose), with HT29 cells (1× dose) and in the experiment with HT29 cells (5× dose) was “increase MIP3A-CCL20 production” in each case.

`CC1=C(C/C=C(\C)CCC[C@H](C)CCC[C@H](C)CCCC(C)C)C(=O)c2ccccc2C1=O` [Vitamin K1]: the “relative abundance of genes involved” value in experiment [1] (0.2× dose), in experiment [1] (1× dose) and in experiment [1] (5× dose) was “increase relative abundance” each time. Moreover, the acetate production entry in experiment [2] (0.2× dose), in experiment [2] (1× dose) and in experiment [2] (5× dose) was “increase acetate production” each time. The butyrate production entry in experiment [2] (0.2× dose), in experiment [2] (1× dose) and in experiment [2] (5× dose) was “increase butyrate production” throughout. The propionate production entry in experiment [2] (0.2× dose), in experiment [2] (1× dose) and in experiment [2] (5× dose) was “increase propionate production” in each case. Moreover, the “total SCFAs production” value in experiment [2] (0.2× dose), in experiment [2] (1× dose) and in experiment [2] (5× dose) was “increase total SCFAs production” each time. In experiment [3] (0.2× dose), the “Lucifer yellow, apical induction of leaky gut cellular model” value is “decrease Lucifer yellow”. Moreover, in the experiment on Bifidobacterium (0.2× dose), the Bifidobacterium relative abundance entry is recorded as “increase Bifidobacterium relative abundance”. Further, the “microbiome alpha diversity (Shannon diversity index)” value in experiment [4] (0.2× dose), in experiment [4] (1× dose) and in experiment [4] (5× dose) was “increase microbiome diversity” in each case. In addition, the “IL-8 production by HT29 cells” value in the experiment on HT29 cells (0.2× dose) is reported as “increase IL-8 production”. Further, the “MIP3A-CCL20 production by HT29 cells” value with HT29 cells (0.2× dose), with HT29 cells (1× dose) and in the experiment on HT29 cells (5× dose) was “increase MIP3A-CCL20 production” each time.
